Source: BindingDB's records for PubMed 8558460 (Yamanouchi Pharmaceutical, 1996)
Where “and” joins values, the source holds several entries; their conditions need not be identical. Equal entries are not always repeated.

Experiments:
[1] = target: Glutamate receptor ionotropic, kainate 1 (Rattus norvegicus, UniProt P22756)
[2] = target: Glutamate receptor ionotropic, NMDA 1 (Rattus norvegicus, UniProt P35439)
Glutamate receptor 3 = Glutamate receptor 3 (Rattus norvegicus, UniProt P19492)
Sequence of Glutamate receptor 3 (P19492 whole entry): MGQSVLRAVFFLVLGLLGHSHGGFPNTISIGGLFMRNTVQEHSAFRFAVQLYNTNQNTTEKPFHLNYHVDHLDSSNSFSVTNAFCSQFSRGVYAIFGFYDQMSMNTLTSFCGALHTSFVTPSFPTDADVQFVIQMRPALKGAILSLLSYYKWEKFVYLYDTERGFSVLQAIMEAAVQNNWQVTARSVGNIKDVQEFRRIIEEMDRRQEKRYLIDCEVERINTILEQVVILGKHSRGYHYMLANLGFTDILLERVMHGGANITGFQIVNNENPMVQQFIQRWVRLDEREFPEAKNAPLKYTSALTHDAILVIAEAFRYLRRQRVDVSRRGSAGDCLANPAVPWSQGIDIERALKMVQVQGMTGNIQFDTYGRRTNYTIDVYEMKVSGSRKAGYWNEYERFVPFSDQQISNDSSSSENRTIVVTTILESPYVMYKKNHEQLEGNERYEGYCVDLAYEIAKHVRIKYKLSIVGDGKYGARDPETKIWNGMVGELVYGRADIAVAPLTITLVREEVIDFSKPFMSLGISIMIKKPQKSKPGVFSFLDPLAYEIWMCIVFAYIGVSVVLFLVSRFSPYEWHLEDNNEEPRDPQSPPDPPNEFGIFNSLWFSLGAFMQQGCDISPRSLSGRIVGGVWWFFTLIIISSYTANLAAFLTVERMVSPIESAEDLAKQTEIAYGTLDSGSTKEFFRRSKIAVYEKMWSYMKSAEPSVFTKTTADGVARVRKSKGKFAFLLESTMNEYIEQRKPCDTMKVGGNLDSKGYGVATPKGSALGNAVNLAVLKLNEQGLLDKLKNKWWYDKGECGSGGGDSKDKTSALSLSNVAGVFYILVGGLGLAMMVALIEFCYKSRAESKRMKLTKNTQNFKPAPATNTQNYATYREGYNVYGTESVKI

Sequence of Glutamate receptor ionotropic, kainate 1 (P22756 whole entry): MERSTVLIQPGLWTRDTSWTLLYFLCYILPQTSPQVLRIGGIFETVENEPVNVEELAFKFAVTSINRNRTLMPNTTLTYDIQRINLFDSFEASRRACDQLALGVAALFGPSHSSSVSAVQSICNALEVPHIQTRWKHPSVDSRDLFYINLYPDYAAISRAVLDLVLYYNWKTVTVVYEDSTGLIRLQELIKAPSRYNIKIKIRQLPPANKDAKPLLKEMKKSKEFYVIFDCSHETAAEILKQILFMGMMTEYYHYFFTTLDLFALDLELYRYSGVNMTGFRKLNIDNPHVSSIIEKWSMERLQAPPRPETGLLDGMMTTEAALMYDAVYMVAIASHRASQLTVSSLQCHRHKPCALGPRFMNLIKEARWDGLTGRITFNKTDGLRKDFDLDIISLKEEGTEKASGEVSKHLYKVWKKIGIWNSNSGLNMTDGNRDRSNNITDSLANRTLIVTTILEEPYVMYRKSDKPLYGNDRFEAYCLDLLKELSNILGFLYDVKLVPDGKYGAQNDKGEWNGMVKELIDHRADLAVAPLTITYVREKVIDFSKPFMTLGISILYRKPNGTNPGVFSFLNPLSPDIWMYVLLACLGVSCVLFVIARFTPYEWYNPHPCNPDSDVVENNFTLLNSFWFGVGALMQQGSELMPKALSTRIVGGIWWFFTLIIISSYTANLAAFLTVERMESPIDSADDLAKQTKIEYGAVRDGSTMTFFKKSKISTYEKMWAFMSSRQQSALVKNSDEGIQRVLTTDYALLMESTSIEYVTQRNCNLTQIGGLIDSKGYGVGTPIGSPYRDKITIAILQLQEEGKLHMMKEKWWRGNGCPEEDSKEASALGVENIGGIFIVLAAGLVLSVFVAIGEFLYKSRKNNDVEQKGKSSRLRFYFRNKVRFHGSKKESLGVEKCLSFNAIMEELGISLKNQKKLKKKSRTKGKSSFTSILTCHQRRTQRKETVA

Row | Ki [1] [µM] | Ki [2] | Ki (Glutamate receptor 3) [µM] | Structure (SMILES)
1 | 2.2 | > 10 µM | 0.084 | O=C1N=c2cc(N(O)O)c(-n3ccnc3)cc2=NC1=O [CAS_3035216]
2 | 1.8 | > 10 µM and 5.6 µM |  | N#Cc1cc2nc(O)c(O)nc2cc1[N+](=O)[O-] [7-Cyano-3-hydroxy-6-nitro-quinoxalin-2-ol anion]
